Values quoted from earlier work, collected in US10665326B2, “Deep proteome markers of human biological aging and methods of determining a biological aging clock” (INSILICO MEDICINE, INC., priority 2017, dated 2020).

Key:
[1] = system: pre-senescent and senescent cells
[2] = system: muscle cells

Compound	killing of pre-senescent and senescent cells [1]	mitogenic response [2]
O=c1c(O)c(-c2ccc(O)c(O)c2)oc2cc(O)cc(O)c12 [quercetin]	able to kill pre-senescent and senescent cells	–
Tocotrienols	able to kill pre-senescent and senescent cells	–
740 Y-P	–	stimulates a mitogenic response
